Minimal effective concentration data for two compounds are collected here from publication PMC7377239, “Cardiovascular Effects of Polychlorinated Biphenyls and Their Major Metabolites” (Environmental Health Perspectives, 2020).

Where two headings read alike, the source gives them in different places.

Test [1] has as its system iCell endothelial cells (human iPSC-derived ECs). Briefly: Tube formation (tubulogenesis) assay in iCell endothelial cells, 18 h. The settings on record: Homo sapiens, Endothelial cell, endothelial cells (endo), 18 hr. The class given is cell-based. In outline: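 iCell ECs (passages 1–5) seeded 7,500 cells/well on reduced-growth-factor Geltrex in starvation medium, exposed overnight at 37°C to compounds in triplicate concentration–response (0.5% DMSO vehicle). Calcein AM staining, 4× imaging, angiogenesis image analysis; readouts normalized to vehicle, four-parameter logistic fit, POD at 1 SD of vehicle; 100 μM assigned NOAEL if no response.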

The subject of the next test is HUVECs. The test is described as follows: High-content imaging cytotoxicity in HUVECs, 24 h. Format: cell-based, human. The settings on record: Homo sapiens, HUVEC, 24 h, HUVEC, 24 hr. The essentials:
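HUVECs (passages 1–5) grown to monolayer over 3–5 d, then exposed 24 h at 37°C, 5% CO2; stained with Hoechst 33342, MitoTracker Orange and calcein AM and imaged at 10×. Readouts normalized to 0.5% DMSO vehicle, four-parameter logistic fit; POD at one-SD cutoff, 100μM assigned when no response.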

Setting [2] is: tube formation mtl, read-out: POD endo.mtl.18hr.
Where [3] appears, read: tube formation tlps, read-out: POD endo.tlps.18hr.
Setting [4] is: tube formation tta, read-out: POD endo.tta.18hr.
[5] abbreviates: tube formation ttl, read-out: POD endo.ttl.18hr.
[6] abbreviates: cyto, read-out: POD huvec.cyto.24hr.
[7] abbreviates: mito, read-out: POD huvec.mito.24hr.
Where [8] appears, read: mitoint, read-out: POD huvec.mitoint.24hr.
Where [9] appears, read: nma, read-out: POD huvec.nma.24hr.
Setting [10] is: tc, read-out: POD huvec.tc.24hr.

As to `Oc1cc(Cl)cc(-c2cccc(Cl)c2)c1` [5-OH-PCB 11], the minimal effective concentration in test [1] (setting [2]) is 5.28 µM; in test [1] (setting [3]), 5.71 µM; in test [1] (setting [4]), 6.97 µM; in test [1] (setting [5]), 7.34 µM; in the test with HUVECs (setting [6]), 0.95 µM; in the test on HUVECs (setting [7]) it was 0.84 µM. For the same compound, the results for the minimal effective concentration in the test on HUVECs (setting [8]), with HUVECs (setting [9]) and in the test on HUVECs (setting [10]) were 3.3 µM, 1.22 µM and 0.95 µM, respectively.
Regarding `COc1cc(Cl)c(-c2cc(Cl)ccc2Cl)cc1Cl` [4-OMe-PCB 52, 4-methoxy-2,2′,5,5′-tetrachlorobiphenyl], the minimal effective concentration in test [1] (setting [2]) is 52 µM; in test [1] (setting [3]) it was 56 µM; in test [1] (setting [4]), 51.6 µM; in test [1] (setting [5]), 54.7 µM; in the test with HUVECs (setting [6]), 0.78 µM; in the test on HUVECs (setting [7]), 0.55 µM. The minimal effective concentration in the test on HUVECs (setting [8]) turned out to be 2.69 µM; with HUVECs (setting [9]), 2.36 µM; in the test on HUVECs (setting [10]), 0.78 µM.
